Values joined by “and” are separate entries in the source; they are usually repeats but may differ in a detail not shown here. Equal values may be shown once.
Assay: rat acute oral toxicity
Conditions: in vivo

`CCC(C)C=O` (centres undefined) gave an LD50 of 6400 mg/kg.

Compound `NCCNCCN` has an LD50 of 1080 mg/kg.

With `C[n+]1ccc(-c2cc[n+](C)cc2)cc1` the LD50 was 97.5 mg/kg and 106 mg/kg.

In the case of `N#Cc1nn(-c2c(Cl)cc(C(F)(F)F)cc2Cl)c(N)c1S(=O)C(F)(F)F` (centres undefined), the LD50 is reported as 92 mg/kg.

`CCCCOC(=O)c1ccccc1C(=O)OCCCC` gave an LD50 of 6300 mg/kg.

`CC(C)COC(=O)CC(C(=O)OCC(C)C)S(=O)(=O)O` (centres undefined) showed an LD50 of 2770 mg/kg.

For `CC(C)(C#N)C(C)(C)C#N`, the LD50 was 27 mg/kg.

`CC(C)CO` gave an LD50 of 2460 mg/kg.

`CS(=O)(=O)Cl` gave an LD50 of 50 mg/kg.

Compound `CC(=O)CC(C)(C)O` has an LD50 of 2520 mg/kg.

`CC1(C)[C@H]2[C@H](O)OC(=O)[C@H]21` gave an LD50 of 200 mg/kg.

`CCCCSP(=O)(SCCCC)SCCCC` gave an LD50 of 150 mg/kg.

For `CCCCCCCC(=O)OCC(COC(=O)CCCCCCC)OC(=O)CCCCCCC`, the LD50 was 33300 mg/kg.

Compound `O=c1ccc(=O)[nH][nH]1` has an LD50 of 3800 mg/kg.

`c1ccc(-c2ccccn2)nc1` gave an LD50 of 100 mg/kg.

`CCCCCCCCCCCCCCCCCC[N+](C)(C)C` gave an LD50 of 702 mg/kg.

`CC(C)(C)CC(C)(C)c1ccc(O)cc1` showed an LD50 of 4040 mg/kg.

`CNCCO` showed an LD50 of 1390 mg/kg.

Work on `CI` yielded an LD50 of 76 mg/kg.

Work on `ClCC1CO1` (centres undefined) yielded an LD50 of 65 mg/kg.

`CCCOCC(C)OCC(C)O` (centres undefined) showed an LD50 of 1500 mg/kg.

`C=C(C)[C@H]1Cc2c(ccc3c2O[C@@H]2COc4cc(OC)c(OC)cc4[C@@H]2C3=O)O1` showed an LD50 of 25 mg/kg.

In the case of `CCCCCCCC(=O)OC`, the LD50 is reported as 10100 mg/kg.

`CCCC=C(C=O)CC` gave an LD50 of 3000 mg/kg.

Compound `CC[N+](=O)[O-]` has an LD50 of 1080 mg/kg.

In the case of `CC(C)c1cccc(C(C)C)c1N=C=Nc1c(C(C)C)cccc1C(C)C`, the LD50 is reported as 200 mg/kg.

Compound `C=CC1CC=CCC1` (centres undefined) has an LD50 of 1600 mg/kg.

With `CC(C)OC(=O)Cl` the LD50 was 468 mg/kg.

In the case of `COc1ccccc1NC(=O)CC(C)=O`, the LD50 is reported as 1600 mg/kg.

In the case of `O=S(=O)(O)OCCOc1ccc(Cl)cc1Cl`, the LD50 is reported as 480 mg/kg.

In the case of `CC(C)[C@H](C(=O)OC(C#N)c1cccc(Oc2ccccc2)c1)c1ccc(OC(F)F)cc1` (some centres undefined), the LD50 is reported as 67 mg/kg.

Work on `OC[C@@H](O)[C@H](O)[C@@H](O)CO` yielded an LD50 of 14100 mg/kg.

For `CCCCCC(C)OC(=O)COc1ccc(Cl)c2cccnc12` (centres undefined), the LD50 was 1100 mg/kg.

`c1ccc(Nc2ccccc2)cc1` gave an LD50 of 1120 mg/kg.

Compound `O=S(=O)(O)c1ccc(Nc2nc(Nc3ccc(/C=C/c4ccc(Nc5nc(Nc6ccc(S(=O)(=O)O)cc6)nc(N(CCO)CCO)n5)cc4S(=O)(=O)O)c(S(=O)(=O)O)c3)nc(N(CCO)CCO)n2)cc1` has an LD50 of 5300 mg/kg.

With `ClC(Cl)c1ccccc1` the LD50 was 3250 mg/kg.

Work on `CCCCC(Cc1cc(C(C)(C)C)c(O)c(C(C)(C)C)c1)(C(=O)OC1CC(C)(C)N(C)C(C)(C)C1)C(=O)OC1CC(C)(C)N(C)C(C)(C)C1` yielded an LD50 of 1490 mg/kg.

`OCCNc1ccccc1` gave an LD50 of 2230 mg/kg.

In the case of `COCC(C)O` (centres undefined), the LD50 is reported as 3740 mg/kg.

In the case of `CCCCOP(C)(=O)CCC(C#N)OC(C)=O` (centres undefined), the LD50 is reported as 253 mg/kg.

In the case of `ClC(Cl)(Cl)Cl`, the LD50 is reported as 2350 mg/kg.

`CCOCCOCCOCC` showed an LD50 of 4970 mg/kg.

For `Clc1cc2c(c(Cl)c1Cl)Oc1cc(Cl)c(Cl)c(Cl)c1O2`, the LD50 was 0.8 mg/kg.

For `O=C(O)CC(O)C(=O)O` (centres undefined), the LD50 was 9300 mg/kg and 3200 mg/kg.

In the case of `OC1CCCCC1`, the LD50 is reported as 1400 mg/kg.

With `COC(C)(C)CCCC(C)C/C=C/C(C)=C/C(=O)OC(C)C` (centres undefined) the LD50 was 2320 mg/kg.

Work on `N#Cc1ccccc1O` yielded an LD50 of 300 mg/kg.

Work on `O=C(O)c1c(Cl)ccc(Cl)c1Cl` yielded an LD50 of 650 mg/kg.

Work on `OCc1ccco1` yielded an LD50 of 177 mg/kg.

In the case of `C[Si](C)(Cl)Cl`, the LD50 is reported as 595 mg/kg.

Compound `CC(C)Nc1nc(Cl)nc(NC2CC2)n1` has an LD50 of 516 mg/kg.

`CN(C)CCCNCCCN` gave an LD50 of 1540 mg/kg.

Compound `CS(=O)(=O)O` has an LD50 of 200 mg/kg.

With `CCOP(=S)(OCC)Oc1cc(C)nc(N(CC)CC)n1` the LD50 was 140 mg/kg.

Work on `CCCCCCC(CO)CCCC` (centres undefined) yielded an LD50 of 13000 mg/kg.

Compound `C=CC(=O)NC(C)(C)CS(=O)(=O)O` has an LD50 of 1830 mg/kg.

`OCCc1ccccc1` gave an LD50 of 1600 mg/kg.

With `CN(C)C(CSC(N)=O)CSC(N)=O` the LD50 was 340 mg/kg.

`CCOC(=O)C1(c2ccccc2)CCN(C)CC1` gave an LD50 of 162 mg/kg.

Compound `ClC=CCCl` has an LD50 of 110 mg/kg.

In the case of `CC(C)(C)C(=O)O`, the LD50 is reported as 900 mg/kg.

Compound `OCCc1ccccn1` has an LD50 of 3840 mg/kg.

Work on `C=C(C)C(=O)OCCN(C)C` yielded an LD50 of 455 mg/kg.

`CCCCN(CCCC)C(=O)N(CCCC)CCCC` showed an LD50 of 16700 mg/kg.

`CC(C)(C)NCCOCCO` showed an LD50 of 1400 mg/kg.

`CCOP(=O)(NC(C)C)Oc1ccc(SC)c(C)c1` (centres undefined) gave an LD50 of 2.7 mg/kg.

For `COc1cc(OC)nc(Oc2cccc(Oc3nc(OC)cc(OC)n3)c2C(=O)O)n1`, the LD50 was 2640 mg/kg.

With `ClSC(Cl)(Cl)Cl` the LD50 was 82.6 mg/kg.

Work on `C=CC1CC2C=CC1C2` (centres undefined) yielded an LD50 of 5240 mg/kg.

`CCCC(C)(COC(N)=O)COC(N)=O` showed an LD50 of 794 mg/kg.

With `O=C(O)c1ccccc1O` the LD50 was 930 mg/kg and 891 mg/kg.

With `Oc1c(Cl)cc(Cl)c(Cl)c1Cc1c(O)c(Cl)cc(Cl)c1Cl` the LD50 was 56 mg/kg.

For `Cc1ccccc1OP(=O)(Oc1ccccc1C)Oc1ccccc1C`, the LD50 was 1160 mg/kg.

`CCCCCCC=O` showed an LD50 of 3200 mg/kg.

`Cc1ccc(N)c(C)c1` gave an LD50 of 467 mg/kg.

Compound `C=CC=O` has an LD50 of 11.1 mg/kg.

In the case of `O=P(OCC(Br)CBr)(OCC(Br)CBr)OCC(Br)CBr` (centres undefined), the LD50 is reported as 810 mg/kg.

Compound `CC(C)N(C(=O)COc1nnc(C(F)(F)F)s1)c1ccc(F)cc1` has an LD50 of 480 mg/kg.

For `OCCOc1ccccc1`, the LD50 was 1370 mg/kg.

For `Clc1cccc(Cl)c1Cl`, the LD50 was 756 mg/kg.

In the case of `O=C1c2ccccc2C(=O)C1C(=O)C(c1ccccc1)c1ccc(Cl)cc1` (centres undefined), the LD50 is reported as 2.1 mg/kg.

With `O=c1oc2ccccc2c(O)c1C1CC(c2ccc(OCc3ccc(C(F)(F)F)cc3)cc2)Cc2ccccc21` (centres undefined) the LD50 was 0.25 mg/kg.

`CC#N` gave an LD50 of 2490 mg/kg.

With `CC(C)OC(=O)Nc1cccc(Cl)c1` the LD50 was 1200 mg/kg.

Reference: the CATMoS acute toxicity set (Mansouri et al. 2021)
